Data as given in US12496315B2, “Compositions for drug delivery and methods of use thereof” (Stellular Bio, Inc., priority 2018, dated 2025).

Legend:
[1] = system: iPSC differentiation cultures on Laminin 521; experiment: WNT agonist addition during iPSC directed differentiation; type: cell-based, human; conditions: for Stage 1 differentiation efficiency at day 6, CD31 and CD34 immunofluorescence: first 48 hours
Excerpt: WNT signaling is important during development. The GSK3 kinase inhibitors CHIR98014 and CHIR99021 act as WNT agonists. […] The control and CHIR98014 cultures were then transitioned to Stage 2, where the production and release of preMKs were tracked by immunofluorescence staining of CD41 and CD43.

iPSCs = experiment: Soluble Laminin 521 addition in 3D iPSC differentiation, preMK yield; type: cell-based, human; conditions: for Stage 2 preMK yields vs control: addition at Day −1 or Day 6
Method: […] 24 hours later, the media was replaced with Stage 1 media and media exchanges were performed for 6 days. Media was then exchanged with Stage 2 media, with or without soluble Laminin 521. 24 hours later, daily half media exchanges were performed for up to 6 additional days. […] To determine if the effect of Laminin 521 could also be observed in agitated 3D cultures, iPSCs were dissociated as single cells and 1.5 million cells were seeded into each well of a 6-well ultra-low adherent plate containing StemFlex and the Rock inhibitor H1152 (control media), with or without soluble recombinant Laminin 521, and placed on an orbital shaker. 24 hours later, the media was replaced with Stage 1 media and media exchanges were performed for 6 days. Media was then exchanged with Stage 2 media, with or without soluble Laminin 521. 24 hours later, daily half media exchanges were performed for up to 6 additional days.

CHIR98014 was tested, and the “Stage 1 differentiation efficiency at day 6, CD31 and CD34 immunofluorescence” value ([1]; 0.6 μM) was “dramatic increase” and the “Stage 2 output, visual estimation of CD41+ cells” value ([1]; 0.6 μM, first 48 hours of Stage 1) was “higher output during Stage 2”.

With “Laminin 521: soluble recombinant Laminin 521” the “Stage 2 preMK yields vs control” value (iPSCs; 6-well ultra-low adherent plate on orbital shaker) was “increased the preMK yields”, the “Stage 2 preMK yields vs control” value (iPSCs; 96-well U-bottom ultra-low adherent plate) was “increased the preMK yields” and the “Laminin 521 effect on preMK yields” value (iPSCs; single cell passaged iPSCs aggregated in NutriStem) was “amplified”.

For `Cc1c[nH]c(-c2cnc(NCCNc3ccc(C#N)cn3)nc2-c2ccc(Cl)cc2Cl)n1` [CHIR99021], the “Stage 1 differentiation efficiency at day 6, CD31 and CD34 immunofluorescence” value ([1]; 6 μM) was “dramatic increase”.
